Measurements published in US9822138B2, “Antiviral beta-amino acid ester phosphodiamide compounds” (Merck Sharp & Dohme Corp., priority 2015, dated 2017).
Read-outs that look alike come from different tables or passages of the source.

Legend:
[1] = Prodrug stability assay in bio-relevant media (FaSSIF with pancreatin; GI tract stability); assay type: in vitro ADME; details: parent prodrug area at 5 h divided by area at 0 h; 37° C.; 0.5 mg/mL pancreatin in FaSSIF
Protocol: Prodrug Stability Assay in Bio-Relevant Media
The following assay was employed to evaluate the stability of the prodrugs in simulated gastrointestinal tract conditions. Preparation of fasted state simulated intestinal fluid (FaSSIF) using Phares SIF Powder was carried out according to protocols from Phare Drug Delivery AG (Baselland, Switzerland). For sample preparation, 10 μL stock solutions (10 mM) of prodrug substance in DMSO was added to 990 μL of 0.5 mg/mL Pancreatin solution (Fisher CAS#8049-47-6) in FaSSIF. Two samples were prepared for each compound at initial. If the sample was clear solution at the beginning, ran one sample directly as initial by HPLC; if the sample was not clear at starting, diluted the sample by 100% ACN. Put the other sample under 37° C. and observed the sample at 5 h time-point. At 5 h time point, if the sample was clear solution then performed HPLC analysis directly; if it was not clear solution, diluted the sample by 100% ACN and assayed by HPLC. All the samples were vortexed for 3 min and observed before injection. For the diluted samples, the area will be multiplied by a factor when data analysis. The analysis was carried out with an Agilent 1100 series HPLC with autosampler. The column was usually a Poroshell 120 EC-C18, 4.6×50 mm, 2.7 μm. The flow rate was 1.8 mL/min, and the injection volume was 5 or 10 μL. UV detection was in the range 210-400 nm. The mobile phase consisted of solvent A (water plus 10 mM tetrabutylammonium bromide) and solvent B (acetonitrile) with a gradient of 90% solvent A at 0 min changing to 95% solvent B over 6 min, maintained for 1.5 min, then reverting to 90% solvent A over 1.6 min. The area of the parent in prodrug at 5 h time point was divided by the area of the parent in prodrug at 0 h time point, to generate the % claimed parent ratio, which are summarized in Table 5 for GI Tract stability.

HIV-1 (H9/IIIB strain) = experiment: microbe, parasite or virus in culture; assay type: cell-based; details: MT4-GFP cells infected with HIV-1 H9/IIIB, inhibition of reproductive ratio R0
Protocol: Assessing Antiviral Potency in a Multiple Round HIV-1 Infection Assay (Viking Assay)
The antiviral activity of the tenofovir prodrugs of the Examples herein was assessed in an assay that measures the rate of replication of HIV in cell culture, termed the Viking assay (Viral KINetics in Green cells) and performed as follows. HIV-1 replication was monitored using MT4-gag-GFP clone D3 (hereafter designated MT4-GFP), which are MT-4 cells modified to harbor a GFP reporter gene, the expression of which is dependent on the HIV-1 expressed proteins tat and rev. Productive infection of an MT4-GFP cell with HIV-1 results in GFP expression approximately 24 h post-infection. MT4-GFP cells were maintained at 37° C./5% CO2/90% relative humidity in RPMI 1640 supplemented with 10% fetal bovine serum, 100 U/ml penicillin/streptomycin, and 400 μg/ml G418 to maintain the reporter gene. For infections, MT4-GFP cells were placed in the same medium lacking G418 and infected overnight with HIV-1 (H9/IIIB strain) virus at an approximate multiplicity of infection of 0.01 in the same incubation conditions. Cells were then washed and re-suspended in either RPMI 1640 supplemented with 10% or 50% normal human serum (NHS) at 1.6×10^5 cells/mL (10% NHS or 50% NHS, respectively). Compound plates were prepared by dispensing compounds dissolved in DMSO into wells of 384 well poly-D-lysine-coated plates (0.2 μl/well) using an ECHO acoustic dispenser. Each compound was tested in a 10-point serial 3-fold dilution (typical final concentrations: 8.4 μM-0.42 nM). Controls included no inhibitor (DMSO only) and a combination of three antiviral agents (efavirenz, indinavir, an in-house integrase strand transfer inhibitor at final concentrations of 4 μM each). Cells were added ([…]) to compound plates and the infected cells were maintained at 37° C./5% CO2/90% relative humidity.
Infected cells were quantified at two time points, ˜48 h and ˜72 h post-infection, by counting the number of green cells in each well using an Acumen eX3 scanner. […] Inhibition of R0 is calculated for each well, and IC50s determined by non-linear 4-parameter curve fitting.

[2] = Human immunodeficiency virus 1, 10% normal human serum, read-out: Viking, IC50 (10% NHS)
[3] = Human immunodeficiency virus 1, 50% normal human serum, read-out: Viking, IC50 (50% NHS)
[4] = 10% normal human serum, read-out: Viking, IC50 (10% NHS)
[5] = 50% normal human serum, read-out: Viking, IC50 (50% NHS)
[6] = Human immunodeficiency virus 1, IIIB, 10% normal human serum, read-out: Viking, IC50 (10% NHS)
[7] = Human immunodeficiency virus 1, IIIB, 50% normal human serum, read-out: Viking, IC50 (50% NHS)

| Structure (SMILES) | GI Tract stability [1] [%] | IC50 (HIV-1 (H9/IIIB strain); [2]) [nM] | IC50 (HIV-1 (H9/IIIB strain); [3]) [nM] | IC50 (HIV-1 (H9/IIIB strain); [4]) [nM] | IC50 (HIV-1 (H9/IIIB strain); [5]) [nM] | IC50 (HIV-1 (H9/IIIB strain); [6]) [nM] | IC50 (HIV-1 (H9/IIIB strain); [7]) [nM] |
| --- | --- | --- | --- | --- | --- | --- | --- |
| CCCCCOC(=O)C(C)(C)N[P@](=O)(CO[C@H](C)Cn1cnc2c(N)ncnc21)N[C@@H](CC(=O)OC(C)C)C(C)C (single isomer, unassigned) [Example 24A] | 76 | 0.8 | 4.4 | – | – | – | – |
| CC(C)OC(=O)CCNP(=O)(CO[C@H](C)Cn1cnc2c(N)ncnc21)N[C@H](C)C(=O)OC1CCC1 (single isomer, unassigned) [Example 23B] | 101 | – | – | 121 | 488 | – | – |
| CCCCCOC(=O)[C@H](C)NP(=O)(CO[C@H](C)Cn1cnc2c(N)ncnc21)NC[C@H](C)C(=O)OC(C)C (single isomer, unassigned) [Example 16A] | 12.7 | – | – | – | – | 6.1 | 18.6 |
| CC(C)OC(=O)C[C@@H](C)NP(=O)(CO[C@H](C)Cn1cnc2c(N)ncnc21)N[C@@H](C)C(=O)OC(C)C (single isomer, unassigned) [Example 9A] | 99.6 | – | – | 25.3 | 66.7 | – | – |
| CC(C)OC(=O)[C@@H](C)CNP(=O)(CO[C@H](C)Cn1cnc2c(N)ncnc21)N[C@H](C)C(=O)OC1CCC1 (single isomer, unassigned) [Example 20B] | 99.3 | – | – | 112 | 432 | – | – |
| CC(C)OC(=O)C[C@H](N[P@@](=O)(CO[C@H](C)Cn1cnc2c(N)ncnc21)NC(C)(C)C(=O)OC(C)C)C(C)C (single isomer, unassigned) [Example 25A] | 99.0 | 4.7 | 12 | – | – | – | – |
| CCCCCCCOC(=O)[C@H](C)NP(=O)(CO[C@H](C)Cn1cnc2c(N)ncnc21)NC[C@H](C)C(=O)OC(C)C (single isomer, unassigned) [Example 17B] | 0 | – | – | 2.2 | 12 | – | – |
| CC(C)OC(=O)[C@@H](C)CNP(=O)(CO[C@H](C)Cn1cnc2c(N)ncnc21)N[C@@H](C)C(=O)OC1CCCC1 (single isomer, unassigned) [Example 11B] | 76.4 | – | – | 20.9 | 68.4 | – | – |
| CCCCOC(=O)[C@H](C)NP(=O)(CO[C@H](C)Cn1cnc2c(N)ncnc21)NC[C@H](C)C(=O)OC(C)C (single isomer, unassigned) [Example 15B] | 65.8 | – | – | 11.7 | 79.4 | – | – |
| CCCCCOC(=O)C(C)(C)NP(=O)(CO[C@H](C)Cn1cnc2c(N)ncnc21)N[C@@H](C)CC(=O)OC(C)C (single isomer, unassigned) [Example 26B] | 96.9 | – | – | 1.5 | 6.8 | – | – |
| CC(C)OC(=O)CCNP(=O)(CO[C@H](C)Cn1cnc2c(N)ncnc21)N[C@@H](C)C(=O)OC(C)C (single isomer, unassigned) [Example 7A] | 98.7 | 26.4 | 44.1 | – | – | – | – |
| CCCCCCCOC(=O)[C@H](C)NP(=O)(CO[C@H](C)Cn1cnc2c(N)ncnc21)NC[C@H](C)C(=O)OC(C)C (single isomer, unassigned) [Example 17A] | 30.5 | – | – | 6.5 | 43 | – | – |
| CC(C)OC(=O)[C@@H](C)CNP(=O)(CO[C@H](C)Cn1cnc2c(N)ncnc21)N[C@@H](C)C(=O)OC1CCC1 (single isomer, unassigned) [Example 12B] | 37.7 | – | – | 20.9 | 63.2 | – | – |
| CC(C)COC(=O)[C@H](C)NP(=O)(CO[C@H](C)Cn1cnc2c(N)ncnc21)NC[C@H](C)C(=O)OC(C)C (single isomer, unassigned) [Example 14A] | 38.3 | – | – | – | – | 16.6 | 70.2 |
| CC(C)OC(=O)[C@H](C)CNP(=O)(CO[C@H](C)Cn1cnc2c(N)ncnc21)N[C@@H](C)C(=O)OC(C)C (single isomer, unassigned) [Example 10A] | 54.8 | – | – | 10.6 | 97.2 | – | – |
| CCCCCCOC(=O)C(C)(C)NP(=O)(CO[C@H](C)Cn1cnc2c(N)ncnc21)N[C@@H](CC(=O)OC(C)C)C(C)C (single isomer, unassigned) [Example 28B] | 83 | – | – | 2.1 | 5.7 | – | – |
| CC(C)OC(=O)C[C@H](C)NP(=O)(CO[C@H](C)Cn1cnc2c(N)ncnc21)N[C@H](C)C(=O)OC1CCC1 (single isomer, unassigned) [Example 19A] | 100 | – | – | 51.2 | 195 | – | – |
| CC(C)OC(=O)[C@@H](C)CNP(=O)(CO[C@H](C)Cn1cnc2c(N)ncnc21)N[C@@H](C)C(=O)OC1CCCCC1 (single isomer, unassigned) [Example 13A] | 38.7 | – | – | 8.7 | 56.4 | – | – |
| CC(C)OC(=O)[C@H](C)NP(=O)(CO[C@H](C)Cn1cnc2c(N)ncnc21)NC[C@H](C)C(=O)OC(C)C (single isomer, unassigned) [Example 6A] | 99.5 | 20 | 59.3 | – | – | – | – |
| CC(C)OC(=O)C[C@H](C)NP(=O)(CO[C@H](C)Cn1cnc2c(N)ncnc21)N[C@@H](C)C(=O)OC(C)C (single isomer, unassigned) [Example 8A] | 89.5 | – | – | 26.5 | 38.2 | – | – |
| CC(C)OC(=O)[C@@H](C)CNP(=O)(CO[C@H](C)Cn1cnc2c(N)ncnc21)N[C@H](C)C(=O)OC1CCCC1 (single isomer, unassigned) [Example 22B] | 99.2 | – | – | 83.8 | 291 | – | – |
| CCCCCOC(=O)[C@H](C)NP(=O)(CO[C@H](C)Cn1cnc2c(N)ncnc21)NC[C@H](C)C(=O)OC(C)C (single isomer, unassigned) [Example 16B] | 56.2 | – | – | 7.3 | 28.3 | – | – |
